pIC50: −log10 of the molar value.
Assays:
[1] = molecular target: T1, M1-type muscarinic cholinergic receptor (Rattus norvegicus, UniProt P08482); assay: Test for affinity for the M1-type muscarinic cholinergic receptor (displacement of [3H]pirenzepine); assay type: binding; settings: for r = (M2/M1), ratio of the IC50 values (selectivity): M2 IC50 (guinea-pig ileum) / M1 IC50 (rat hippocampus); for pIC50: homogenate of rat hippocampus, [3H]PZ 1 nM, 2 h at 4° C., pH 7.40
T1 sequence (P08482 1-460): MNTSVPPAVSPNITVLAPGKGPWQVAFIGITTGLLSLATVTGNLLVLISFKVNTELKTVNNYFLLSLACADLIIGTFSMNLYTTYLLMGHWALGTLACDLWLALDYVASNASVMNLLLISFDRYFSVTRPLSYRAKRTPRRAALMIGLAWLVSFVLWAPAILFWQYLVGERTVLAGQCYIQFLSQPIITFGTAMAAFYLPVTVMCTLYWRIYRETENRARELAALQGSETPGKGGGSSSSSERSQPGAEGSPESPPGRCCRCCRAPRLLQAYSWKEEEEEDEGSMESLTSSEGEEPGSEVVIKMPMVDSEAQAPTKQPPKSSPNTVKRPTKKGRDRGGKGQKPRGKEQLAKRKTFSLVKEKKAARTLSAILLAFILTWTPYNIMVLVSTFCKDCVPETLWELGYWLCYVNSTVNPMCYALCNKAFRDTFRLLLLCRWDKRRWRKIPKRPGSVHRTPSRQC
Description: (A) Test for Affinity for the M1 -Type Muscarinic Cholinergic Receptor
The interaction of the molecules with M1 -type muscarinic receptors was studied by in vitro measurement, on a homogenate of rat hippocampus, of the displacement of tritiated pirenzepine ([^3 H]PZ) from its specific binding sites. Aliquots (10 μl) of a 5% (w/v) homogenate of rat hippocampus in an Na2 HPO4 buffer (50 mM, pH 7.40) are incubated for 2 h at 4° C. in the presence of [^3 H]PZ (76 Ci/nmol; final concentration: 1 nM) and increasing concentrations of products to be studied. The final volume is 2 ml. The reaction is stopped by centrifugation for 10 min at 50,000×g. After decantation and washing of the residues, the bound radioactivity is counted by liquid scintillation. The non-specific binding is determined in the presence of 10 μmol/l of atropine sulfate. The 50% inhibitory concentration (IC50) is determined graphically (Ref.: Watson J. D., Roeskoe W. R. and Yamamura H. I., Life Sci., 31, 2019-2029, 1982).

[2] = molecular target: T2, M2-type muscarinic cholinergic receptor (Cavia porcellus, UniProt H0VRN8); assay: Test for affinity for the M2-type muscarinic cholinergic receptor (displacement of [3H]N-methylscopolamine); assay type: binding; settings: homogenate of smooth muscle of guinea-pig ileum, [3H]NMS 0.3 nM, 20 min at 30° C., pH 7.5
T2 construct: on a homogenate of smooth muscle of guinea-pig ileum; from tissue; host or cells: guinea-pig ileum smooth muscle homogenate
T2 sequence (H0VRN8 1-466): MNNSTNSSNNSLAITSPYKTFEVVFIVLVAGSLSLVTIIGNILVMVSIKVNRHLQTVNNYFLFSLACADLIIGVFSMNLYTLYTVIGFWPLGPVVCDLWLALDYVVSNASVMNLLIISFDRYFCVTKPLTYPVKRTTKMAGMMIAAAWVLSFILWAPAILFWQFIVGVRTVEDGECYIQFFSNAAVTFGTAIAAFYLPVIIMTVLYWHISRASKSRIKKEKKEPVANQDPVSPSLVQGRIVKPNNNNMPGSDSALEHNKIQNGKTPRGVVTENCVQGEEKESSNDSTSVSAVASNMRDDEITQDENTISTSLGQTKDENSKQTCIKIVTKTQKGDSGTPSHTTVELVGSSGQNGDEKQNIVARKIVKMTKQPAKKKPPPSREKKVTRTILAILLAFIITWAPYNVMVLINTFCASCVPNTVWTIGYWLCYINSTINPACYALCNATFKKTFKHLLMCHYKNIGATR
From the text: The M1 -type receptors are concentrated in certain areas of the brain, such as the hippocampus, the cerebral cortex and the striatum, and also in the sympathetic ganglia. These binding sites can be selectivity labeled with [^3 H] pirenzepine ([^3 H]PZ). The M2 -type receptors predominate in the heart and ileum and can be labeled with [^3 H] N-methylscopolamine ([^3 H]NMS). To determine the selectivity of the products of the invention towards the M1 and M2 sites, we studied their interaction in vitro with [^3 H]PZ and [^3 H]NMS bound with a high affinity to membranes of rat hippocampus and membranes of smooth muscle of guinea-pig ileum, respectively.
(B) Test for Affinity for the M2 -Type Muscarinic Cholinergic Receptor
The interaction with M2 -type muscarinic receptors was studied by in vitro measurement, on a homogenate of smooth muscle of guinea-pig ileum, of the displacement of tritiated N-methylscopolamine ([^3 H]NMS) from its specific binding sites. Aliquots (50 μl) of a 0.625% (w/v) homogenate of smooth muscle of guinea-pig ileum in MEPES buffer (20 mM) containing NaCl (100 mM) and MgCl2 (10 mM) (final pH: 7.5) are incubated for 20 min at 30° C. in the presence of [^3 H]NMS ([…]; final concentration: 0.3 nM) and increasing concentrations of products to be tested. The final volume is 1 ml. The reaction is stopped by centrifugation for 5 min at 15,000×g. The non-specific binding is determined in the presence of 10 μmol/l of atropine sulfate. (Ref.: Hammer R., Berrie C. P., Birdsall N. I. M., Burgen A. S. V. and Hulme E. C., Nature, 283, 90-92, 1980; Hulme E. C., Birdsall N. I. M., Burgen A. S. V. and Mettha P., Mol. Pharmacol., 14, 737-750, 1978).
Table 2 indicates the affinities of the products of the invention for M1 and M2 receptors. The results are expressed as 50% inhibitory concentrations (IC50), i.e. the concentration (in μM) which causes a 50% displacement of the tritiated ligand bound to the membrane receptors. The IC50 for displacement of ^3 H-pirenzepine represents the affinity for the M1 receptor; the IC50 for displacement of ^3 H-NMS represents the affinity for the M2 receptor.

[3] = tested on: M1 central muscarinic cholinergic receptors; assay: Antagonism of rotational behavior induced by intrastriatal injection of pirenzepine in mice; assay type: in vivo, mice (Swiss, CD 1, female); settings: i.p., 15 minutes before pirenzepine, * p<0.05, ** p<0.01 vs control animals
Description: Pirenzepine (PZ) is a specific antagonist of M1 central muscarinic cholinergic receptors. The intrastriatal injection of PZ into mice induces rotational behavior. The antagonism of this behavior by the products according to the invention was studied. The products according to the invention are injected intraperitoneally (i.p.) after solubilization in distilled water or suspension in a 5% solution of gum arabic. The control animals receive an injection of the pure solvent under the same conditions. The animals used are female mice (Swiss, CD 1, Charles River, France) with a body weight of between 25 and 30 grams. Pirenzepine is dissolved in a phosphate buffer; the pH of the solution is 6. The products to be studied or their solvents are injected intraperitoneally, in a volume of 0.4 ml per 20 g of body weight, 15 minutes before a direct injection of pirenzepine at a dose of […] into the right striatum of the mouse, according to the method described by P. WORMS et al. in Eur. J. Pharmacol., 1986, 121, 395-401. The number of contralateral rotations (rotations in the opposite direction to the side injected) was counted for three 2-minute periods after the injection of pirenzepine: minutes 2 to 4, 8 to 10 and 13 to 15. Each treatment includes 1 to 3 doses and 10 animals per dose. For each treatment, the total number of rotations and the percentage antagonism compared with the control group are calculated.

| SMILES | r = (M2/M1), ratio of the IC50 values (selectivity) [1] | pIC50 [1] | pIC50 [2] | Pirenzepine antagonism (percentage antagonism compared with control group, rotations) ([3]; 3 mg/kg) [%] | Pirenzepine antagonism (percentage antagonism compared with control group, rotations) ([3]; 10 mg/kg) [%] | Pirenzepine antagonism (percentage antagonism compared with control group, rotations) ([3]; 30 mg/kg) [%] |
| --- | --- | --- | --- | --- | --- | --- |
| Cl.Cl.c1ccc2c(c1)oc1cc(NCCN3CCOCC3)nnc12 [SR 44288 A, 2-(2-Morpholinoethylamino)-9-oxa-3,4-diazafluorene dihydrochloride] | > 33 | 5.52 | < 4.00 | -32 | -52 | -100 |
| Cl.Cl.c1ccc2c(c1)sc1cc(NCCN3CCOCC3)nnc12 [SR 44289 A, 2-(2-Morpholinoethylamino)-9-thia-3,4-diazafluorene dihydrochloride] | 28 | 5.46 | 4.00 | -42 | -85 | – |
| CCN(CC)CCNc1cc2oc3ccccc3c2nn1 [SR 45040 A] | 64 | 6.15 | 4.35 | -47 | – | – |
| CCN(CC)CCCNc1cc2oc3ccccc3c2nn1 [SR 45041 A] | 100 | 7.00 | 5.00 | -72 | – | – |
| CCN1CCCC1CNc1cc2oc3ccccc3c2nn1 (centres unmarked) [SR 45042 A] | 500 | 7.00 | 4.30 | -52 | – | – |
| CCN(CC)CCNc1cc2c(nn1)-c1ccccc1SC2.Cl.Cl [SR 96056 A, 2-(2-Diethylaminoethylamino)-9,10-dihydro-9-thia-3,4-diazaphenanthrene dihydrochloride] | 24 | 6.82 | 5.44 | -14 | -55 | -79 |
| Cl.Cl.c1ccc2c(c1)OCc1cc(NCCN3CCOCC3)nnc1-2 [SR 96094 A, 2-(2-Morpholinoethylamino)-9,10-dihydro-9-oxa-3,4-diazaphenanthrene dihydrochloride] | > 27 | 5.44 | < 4.00 | -8 | -20 | -85 |

— patent publication US4983603A, “Tricyclic cholinergic receptor agonists” (Societe Anonyme: SANOFI, priority 1987, dated 1991)
